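Exposure lasted 48 hours, with cells grown in 96-well plates and compounds tested at five concentrations. GI50: concentration for 50% inhibition of growth.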 Activity calls are given as the source filed them. Cut-off read from the data, not from the text of the source: active = GI50 up to about 1.1 µM and inactive = higher.
What was measured:
Assay in all cases: DTP human tumour cell line panel, 48 h
NCI-H522 = tested on: NCI-H522
HCC 2998 = tested on: HCC 2998
CCRF-CEM = tested on: CCRF-CEM
KM12 = tested on: KM12
RPMI-8226 = tested on: RPMI-8226
SN12C = tested on: SN12C
K562 = tested on: K562
OVCAR-3 = tested on: OVCAR-3
Malme-3M = tested on: Malme-3M
SK-OV-3 = tested on: SK-OV-3
SF-295 = tested on: SF-295
SF-539 = tested on: SF-539
HT-29 = tested on: HT-29
NCI-H23 = tested on: NCI-H23
U-251 = tested on: U-251
OVCAR-4 = tested on: OVCAR-4
M14 = tested on: M14
MDA-MB-435 = tested on: MDA-MB-435
PC-3 = tested on: PC-3
SR = tested on: SR

Measured: GI50

O=C(NN1C(=O)CSC1c1ccc(C(F)(F)F)cc1)c1ccncc1 (centres undefined)
inactive: NCI-H522 > 100 µM | HCC 2998 > 100 µM | CCRF-CEM > 100 µM | KM12 > 100 µM | RPMI-8226 > 65.6 µM | SN12C > 100 µM | K562 > 100 µM | OVCAR-3 > 100 µM | Malme-3M > 100 µM | SK-OV-3 > 100 µM | SF-295 > 100 µM | SF-539 > 100 µM | HT-29 > 100 µM | NCI-H23 > 100 µM | U-251 > 100 µM | OVCAR-4 > 100 µM

CN1C(=O)C(C#N)C2C[C@@]1(C)Oc1ccccc12 (some centres undefined)
inactive: NCI-H522 > 100 µM | HCC 2998 > 100 µM | M14 > 100 µM | CCRF-CEM > 100 µM | KM12 > 100 µM | RPMI-8226 > 100 µM | K562 > 100 µM | OVCAR-3 > 100 µM | SK-OV-3 > 100 µM | MDA-MB-435 > 100 µM | SF-295 > 100 µM | HT-29 > 100 µM | NCI-H23 > 100 µM | PC-3 > 100 µM | U-251 > 100 µM | OVCAR-4 > 100 µM

CCOc1ncn(-c2ccc(NC(=S)Nc3cccc(O)c3)cc2)n1
inactive: NCI-H522 > 100 µM | HCC 2998 > 100 µM | M14 > 100 µM | CCRF-CEM > 100 µM | KM12 > 100 µM | RPMI-8226 > 100 µM | SN12C > 100 µM | K562 > 100 µM | OVCAR-3 > 100 µM | SK-OV-3 > 100 µM | MDA-MB-435 > 100 µM | SF-295 > 100 µM | SF-539 > 100 µM | HT-29 > 100 µM | NCI-H23 > 100 µM | PC-3 > 100 µM | U-251 > 100 µM | SR > 100 µM | OVCAR-4 > 100 µM

N#C/C(=C\c1ccc(Cl)cc1)c1nc2ccccc2c(=O)[nH]1
inactive: NCI-H522 37.4 µM | HCC 2998 > 100 µM | M14 > 100 µM | CCRF-CEM > 100 µM | KM12 > 100 µM | RPMI-8226 > 100 µM | SN12C > 100 µM | K562 > 100 µM | Malme-3M > 100 µM | SK-OV-3 > 100 µM | MDA-MB-435 > 100 µM | SF-295 47.4 µM | SF-539 > 100 µM | HT-29 > 100 µM | PC-3 > 100 µM | U-251 52.5 µM | SR > 100 µM | OVCAR-4 > 100 µM

CC12CCC(=O)N1c1cnccc1N2 (centres undefined)
inactive: NCI-H522 > 100 µM | HCC 2998 > 100 µM | M14 > 100 µM | CCRF-CEM > 100 µM | KM12 > 100 µM | RPMI-8226 > 100 µM | SN12C > 100 µM | K562 > 100 µM | OVCAR-3 > 100 µM | Malme-3M > 100 µM | SK-OV-3 > 100 µM | SF-295 > 100 µM | SF-539 > 100 µM | HT-29 > 100 µM | NCI-H23 > 100 µM | U-251 > 100 µM | SR > 100 µM | OVCAR-4 > 100 µM

CC(=O)O[C@H]1CC[C@H]2[C@@H]3CCC(C(C)=O)[C@H](C(=O)O)[C@H]3CC[C@]12C (some centres undefined)
inactive: NCI-H522 > 100 µM | HCC 2998 > 100 µM | M14 > 100 µM | CCRF-CEM > 100 µM | KM12 > 100 µM | RPMI-8226 > 100 µM | K562 > 100 µM | OVCAR-3 > 100 µM | Malme-3M > 100 µM | SK-OV-3 > 100 µM | MDA-MB-435 > 100 µM | SF-295 > 100 µM | SF-539 > 100 µM | HT-29 > 100 µM | NCI-H23 > 100 µM | PC-3 > 100 µM | U-251 > 100 µM | SR > 100 µM | OVCAR-4 > 100 µM

CC(=O)/N=C1\N/C(=C/c2cc([N+](=O)[O-])ccc2O)CN1C
inactive: HCC 2998 > 100 µM | M14 > 100 µM | KM12 > 100 µM | SN12C > 100 µM | OVCAR-3 > 100 µM | SK-OV-3 > 100 µM | MDA-MB-435 > 100 µM | SF-295 > 100 µM | SF-539 > 100 µM | HT-29 > 100 µM | NCI-H23 > 100 µM | PC-3 > 100 µM | U-251 > 100 µM | OVCAR-4 > 100 µM

O=C1OC(CN2CCOCC2)CN1/N=C/c1ccc([N+](=O)[O-])o1 (centres undefined) [FURALTADONE]
inactive: NCI-H522 26 µM | M14 20.7 µM | CCRF-CEM 53 µM | KM12 18.5 µM | RPMI-8226 24.2 µM | SN12C 28.7 µM | K562 70 µM | OVCAR-3 21.9 µM | Malme-3M 22.7 µM | SK-OV-3 74.6 µM | MDA-MB-435 18 µM | SF-295 34.9 µM | SF-539 42.1 µM | HT-29 32.4 µM | NCI-H23 22.9 µM | PC-3 54.2 µM | U-251 31.6 µM | SR 36.8 µM | OVCAR-4 45.5 µM

CCCCCCCCCCCCCCCc1nnc(S)[nH]1
inactive: NCI-H522 19.6 µM | HCC 2998 > 100 µM | M14 > 100 µM | CCRF-CEM 51.3 µM | KM12 > 100 µM | RPMI-8226 79.3 µM | SN12C > 100 µM | K562 52.6 µM | OVCAR-3 > 100 µM | Malme-3M > 100 µM | SK-OV-3 > 100 µM | SF-539 > 100 µM | HT-29 > 100 µM | NCI-H23 > 100 µM | U-251 > 100 µM | SR 29.6 µM | OVCAR-4 46.1 µM

COc1ccc2nc3c(C)cc4ccccc4n3c2c1
inactive: HCC 2998 > 100 µM | M14 > 100 µM | CCRF-CEM 47.6 µM | KM12 > 100 µM | RPMI-8226 55.1 µM | SN12C > 100 µM | K562 41.2 µM | OVCAR-3 71 µM | Malme-3M > 100 µM | SK-OV-3 > 100 µM | MDA-MB-435 > 100 µM | SF-295 78.7 µM | SF-539 86.9 µM | HT-29 55 µM | NCI-H23 > 100 µM | PC-3 46.3 µM | U-251 44.7 µM | SR 50.2 µM

O=c1oc2ccccc2n1P(=O)(Oc1ccc(Cl)cc1)n1c(=O)oc2ccccc21
inactive: NCI-H522 > 100 µM | HCC 2998 46.6 µM | CCRF-CEM 18.5 µM | KM12 85.5 µM | SN12C > 100 µM | K562 42.2 µM | OVCAR-3 > 100 µM | Malme-3M > 100 µM | SK-OV-3 > 100 µM | SF-295 93.8 µM | SF-539 > 100 µM | HT-29 > 100 µM | NCI-H23 > 100 µM | U-251 > 100 µM | SR > 100 µM | OVCAR-4 > 100 µM

N/C(=N\O)N/N=C/c1ncccc1O
inactive: NCI-H522 15.1 µM | HCC 2998 12.1 µM | CCRF-CEM 6.43 µM | KM12 5.81 µM | RPMI-8226 1.83 µM | SN12C 16.7 µM | K562 4.82 µM | OVCAR-3 14.8 µM | Malme-3M 35.2 µM | SK-OV-3 35.9 µM | SF-295 10.6 µM | SF-539 19.7 µM | HT-29 13.4 µM | NCI-H23 > 49 µM | U-251 15.5 µM | OVCAR-4 18.1 µM

COc1cc(OC)cc(Oc2nc3cc(F)c(F)cc3nc2-c2ccccc2)c1
inactive: NCI-H522 > 100 µM | M14 > 100 µM | CCRF-CEM > 100 µM | KM12 > 100 µM | SN12C > 100 µM | OVCAR-3 > 100 µM | Malme-3M > 100 µM | SK-OV-3 > 100 µM | MDA-MB-435 > 100 µM | SF-295 > 100 µM | SF-539 > 100 µM | HT-29 > 100 µM | NCI-H23 > 100 µM | PC-3 > 100 µM | U-251 > 100 µM | SR > 100 µM | OVCAR-4 > 100 µM

CCCCC(CC)C(=O)Oc1ccc(C(=O)c2ccccc2)c(O)c1 (centres undefined)
inactive: NCI-H522 31.7 µM | HCC 2998 52.8 µM | M14 38.5 µM | CCRF-CEM 43.6 µM | KM12 15.4 µM | RPMI-8226 15.1 µM | SN12C 44.4 µM | K562 25.9 µM | OVCAR-3 40.5 µM | Malme-3M 40.6 µM | SK-OV-3 > 100 µM | MDA-MB-435 35.8 µM | SF-295 29.4 µM | SF-539 5.46 µM | HT-29 55.7 µM | NCI-H23 35.2 µM | PC-3 51.5 µM | U-251 46.7 µM | OVCAR-4 31 µM

Nc1c(S(=O)(=O)O)cc(S(=O)(=O)O)c2ccc(/N=N/c3ccc(/C=C/c4ccc(/N=N/c5ccc6c(S(=O)(=O)O)cc(S(=O)(=O)O)c(N)c6c5O)cc4S(=O)(=O)O)c(S(=O)(=O)O)c3)c(O)c12
inactive: NCI-H522 54.1 µM | HCC 2998 > 100 µM | CCRF-CEM > 100 µM | KM12 > 100 µM | RPMI-8226 > 100 µM | SN12C > 100 µM | K562 > 100 µM | OVCAR-3 > 100 µM | Malme-3M > 100 µM | SK-OV-3 97.1 µM | SF-295 > 100 µM | SF-539 > 100 µM | HT-29 > 100 µM | NCI-H23 > 100 µM | U-251 > 100 µM | OVCAR-4 > 57.9 µM

CCOC(=O)CCc1c(C)c2c(O)cc(O)cc2oc1=O
inactive: NCI-H522 > 100 µM | HCC 2998 > 100 µM | CCRF-CEM 26 µM | KM12 > 100 µM | RPMI-8226 > 100 µM | SN12C > 100 µM | K562 > 100 µM | OVCAR-3 > 100 µM | Malme-3M > 100 µM | SK-OV-3 > 100 µM | SF-295 > 68.9 µM | SF-539 > 100 µM | HT-29 > 100 µM | NCI-H23 > 100 µM | U-251 53.8 µM | OVCAR-4 > 100 µM
